# Results as given in article PMC4969146 (Bioorganic & medicinal chemistry letters, 2016).
# Like-named read-outs stand apart in the source and are kept apart here.
# Tested on: Escherichia coli K12
# Format: cell-based
# [1] = K12, read-out: Minimum Inhibitory Concentration E. coli K12, M9 media
# [2] = K12, read-out: Minimum Inhibitory Concentration E. coli K12, M9 plus 5 µg/mL PABA
# [3] = K12, read-out: Minimum Inhibitory Concentration E. coli K12, M9 plus 20 µg/mL Methionine
Structure (SMILES),MIC [1] [µM],MIC [2] [µM],MIC [3] [µM]
"Nc1ccc(S(N)(=O)=O)cc1 [parent sulfonamide of 22, sulfanilamide]",22,> 934,58
"Cc1cc(NS(=O)(=O)c2ccc(N)cc2)no1 [parent sulfonamide of 15, sulfamethoxazole]",0.8,263,1.5
"Nc1ccc(S(=O)(=O)c2ccc(N)cc2)cc1 [parent sulfonamide of 21, 4-[(4-aminobenzene)sulfonyl]aniline]",25,> 934,50
"COc1cc(NS(=O)(=O)c2ccc(N)cc2)nc(OC)n1 [parent sulfonamide of 19, sulfadimethoxine]",1.6,537,3.4
